According to patent US20180250320A1, “COMPOSITIONS AND METHODS FOR TREATING SOLID TUMORS” (THE JOHNS HOPKINS UNIVERSITY, priority 2015, published 2018):
Read-outs that look alike come from different tables or passages of the source.

Assays:
[1] = tested on: VEGF-defensin ID8 ovarian cells; test: Ascites fluid volume in the ID8 model of ovarian cancer; type: in vivo; conditions: mice drained at week 6 after injection; same regimen; vs untreated (Mock) or single agent
Description: Mice were injected with 2.5×10^6VEGF-defensin ID8 ovarian cells i.p. Three days later, mice began treatment with 0.5 mg/kg 5-azacytidine (AZA) for 5 days per week. The next week the mice were treated with either 2 mg/kg MS275 or ITF 5 days a week, and the treatments alternated by week until the end of the experiment. Mice developed ascites fluid by week 4.5, and were drained and the ascites volume was measured. Ascites volume from mice drained at week 6 after injection.

[2] = cited from earlier work
[3] = tested on: Human lung cancer cell lines H23 and A549; test: Expression of anti-viral genes and cancer testis antigens after AZA priming and HDACi treatment; type: cell-based; conditions: for expression of anti-viral genes: FIG. 4A; for expression of cancer testis antigens: FIG. 4B
Source text: FIGS. 4A and 4B. […] Human lung cancer cell lines H23 and A549 were primed by treatment with AZA (red line) for 5 days followed by 3-5 days of treatment with the HDACi. For many genes, addition of an HDACi to AZA increases gene expression above levels attained by AZA alone.

[4] = HDACi in combination with AZA: AZA priming 5 days, then 3-5 days HDACi

Nc1ncn([C@@H]2O[C@H](CO)[C@@H](O)[C@H]2O)c(=O)n1 [AZA, 4-amino-1-β-D-ribofuranozyl-s-triazin-2(1H)-one]
ascites fluid volume [1]: significantly reduced ascites volume compared to Mock
solubility ([2]; 5% Tween 80 in water): sparingly soluble
solubility ([2]; 5% dextrose in water): sparingly soluble
solubility ([2]; N-methyl-2-pyrrolidone): sparingly soluble
solubility ([2]; acetone): insoluble
solubility ([2]; dimethylsulfoxide (DMSO)): soluble
solubility ([2]; ethanol/water (50/50)): slightly soluble
solubility ([2]; ethanol): insoluble
solubility ([2]; methyl ketone): insoluble
solubility ([2]; normal saline): sparingly soluble
solubility ([2]; polyethylene glycol): slightly soluble
solubility ([2]; propylene glycol): slightly soluble
solubility ([2]; water-saturated octanol): sparingly soluble
solubility ([2]; water): sparingly soluble

Nc1ccccc1NC(=O)c1ccc(CNC(=O)OCc2cccnc2)cc1 [Entinostat]
expression of anti-viral genes [3, 4]: increase expression
expression of cancer testis antigens [3, 4]: increase expression
expression of anti-viral genes ([3]; HDACi used as single agent): NOT
expression of cancer testis antigens ([3]; HDACi used as single agent): NOT

CCN(CC)Cc1ccc2cc(COC(=O)Nc3ccc(C(=O)NO)cc3)ccc2c1.Cl [Givinostat, diethyl-[6-(4-hydroxycarbamoyl-phenylcarbamoyloxymethyl)-naphthalen-2-ylmethyl]-ammonium chloride]
expression of anti-viral genes [3, 4]: increase expression
expression of cancer testis antigens [3, 4]: increase expression
expression of anti-viral genes ([3]; HDACi used as single agent): NOT
expression of cancer testis antigens ([3]; HDACi used as single agent): NOT
